The target of data set [1] is T1, AnGBase (A. niger GBase) (Aspergillus niger, UniProt W8R465).
T1 sequence (W8R465 21-422 limits assumed): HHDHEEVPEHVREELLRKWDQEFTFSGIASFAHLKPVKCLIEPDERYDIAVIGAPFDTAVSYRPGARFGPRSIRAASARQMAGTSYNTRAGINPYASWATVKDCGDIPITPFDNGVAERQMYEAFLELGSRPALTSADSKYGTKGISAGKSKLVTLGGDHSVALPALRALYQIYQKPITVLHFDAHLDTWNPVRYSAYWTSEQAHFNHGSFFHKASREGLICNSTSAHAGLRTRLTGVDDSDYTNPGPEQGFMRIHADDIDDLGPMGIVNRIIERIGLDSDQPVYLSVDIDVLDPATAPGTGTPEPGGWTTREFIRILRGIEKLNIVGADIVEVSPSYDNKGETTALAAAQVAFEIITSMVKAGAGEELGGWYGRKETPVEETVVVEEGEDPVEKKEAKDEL
The data set can be described thus: product inhibition, Cheng-Prusoff. Type of data set: biochemical. From the text:
product inhibition, Cheng-Prusoff on AnGBase (A. niger GBase)

For data set [2], the target named is T2, CpGBase (C. parapsilosis 4-guanidinobutyrase; CparGBase) (Lodderomyces parapsilosis, UniProt G8B5B7).
T2 construct: gene CPAR2_602270
T2 sequence (G8B5B7 16-367 limits assumed): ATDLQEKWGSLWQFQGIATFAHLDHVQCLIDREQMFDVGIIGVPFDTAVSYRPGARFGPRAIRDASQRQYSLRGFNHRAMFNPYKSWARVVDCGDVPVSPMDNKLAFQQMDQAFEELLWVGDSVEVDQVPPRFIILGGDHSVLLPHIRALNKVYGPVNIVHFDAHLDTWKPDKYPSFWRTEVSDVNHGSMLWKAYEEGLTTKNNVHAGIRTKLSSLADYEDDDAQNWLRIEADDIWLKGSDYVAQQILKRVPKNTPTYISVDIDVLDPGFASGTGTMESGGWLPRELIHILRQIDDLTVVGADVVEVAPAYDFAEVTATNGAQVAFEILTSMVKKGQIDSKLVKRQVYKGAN
In words: modified Archibald urea assay, product inhibition, Cheng-Prusoff. Type of data set: biochemical. The source says: modified Archibald urea assay, product inhibition, Cheng-Prusoff on CpGBase (C. parapsilosis 4-guanidinobutyrase; CparGBase)

Substrate in data set [3]: N=C(N)NCCC(=O)O
The data set can be described thus: purified protein. Type of data set: biochemical, Lodderomyces parapsilosis. The conditions noted are these: 20 mM phosphate buffer, 37 °C, 20 min, enriched enzyme.

Substrate in data set [4]: N=C(N)NCCCC(=O)O
The data set can be described thus: purified protein. Type of data set: biochemical, Lodderomyces parapsilosis. The following applies: 20 mM phosphate buffer, 37 °C, 20 min, enriched enzyme.

Like-named read-outs stand apart in the source and are kept apart here.

With `NCCCC(=O)O` [GABA], the results for the Ki in data set [1] (read-out: KI / GABA) and in data set [2] (read-out: KI / GABA) were 4.1 ± 1.1 mM and 3.1 ± 0.5 mM, respectively.

In the case of `NCCC(=O)O` [β-alanine], the values for the Ki in data set [1] (read-out: KI / β-alanine) and in data set [2] (read-out: KI / β-alanine) were 48.7 ± 0.8 mM and 7.8 ± 1.2 mM, respectively.

B1: CpGBase (C. parapsilosis 4-guanidinobutyrase; CparGBase) (Lodderomyces parapsilosis CDC317) (protein)
chain: T2 sequence (G8B5B7 16-367 limits assumed)
On to B1, for which the Km in data set [3] is given as 9.6 ± 0.4 mM; in data set [4] it was 4.6 ± 0.5 mM.

The term Km denotes the substrate concentration at which the rate is half of its maximum.

These data come from paper PMC10833137, “Characterization of a novel 4-guanidinobutyrase from Candida parapsilosis” (FEMS Yeast Research, 2024).
